# Assay results from ChEMBL document CHEMBL1201862, “PubChem BioAssay data set” (2004).
#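 Values below derive from 48-hour exposures of cells grown in 96-well plates, with endpoints linearly interpolated between the two concentrations bracketing the appropriate inhibition level. GI50 = concentration required for 50% inhibition of growth.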 Activity calls are given as the source filed them. Cut-off read from the data, not from the text of the source: active = GI50 up to about 1.1 µM and inactive = higher.
# Legend:
# Experiment in all cases: NCI tumour cell line growth inhibition, 48 h
# 786-0 = system: 786-0
# A498 = system: A498
# A549 = system: A549
# CAKI-1 = system: CAKI-1
# CCRF-CEM = system: CCRF-CEM
# COLO 205 = system: COLO 205
# DLD-1 = system: DLD-1
# DMS-273 = system: DMS-273
# EKVX = system: EKVX
# HCC 2998 = system: HCC 2998
# HCT-116 = system: HCT-116
# HCT-15 = system: HCT-15
# HL-60 = system: HL-60
# HOP-62 = system: HOP-62
# HOP-92 = system: HOP-92
# HT-29 = system: HT-29
# IGROV-1 = system: IGROV-1
# K562 = system: K562
# KM-20L2 = system: KM-20L2
# KM12 = system: KM12
# LOX IMVI = system: LOX IMVI
# LXFL 529 = system: LXFL 529
# M14 = system: M14
# M19-MEL = system: M19-MEL
# MOLT-4 = system: MOLT-4
# Malme-3M = system: Malme-3M
# NCI-H226 = system: NCI-H226
# NCI-H23 = system: NCI-H23
# NCI-H460 = system: NCI-H460
# NCI-H522 = system: NCI-H522
# OVCAR-3 = system: OVCAR-3
# OVCAR-4 = system: OVCAR-4
# OVCAR-5 = system: OVCAR-5
# OVCAR-8 = system: OVCAR-8
# RPMI-8226 = system: RPMI-8226
# RXF 393 = system: RXF 393
# SF-268 = system: SF-268
# SF-295 = system: SF-295
# SF-539 = system: SF-539
# SK-MEL-5 = system: SK-MEL-5
# SN12C = system: SN12C
# SNB-19 = system: SNB-19
# SNB-75 = system: SNB-75
# SNB-78 = system: SNB-78
# SR = system: SR
# SW-620 = system: SW-620
# TK-10 = system: TK-10
# U-251 = system: U-251
# UACC-257 = system: UACC-257
# UACC-62 = system: UACC-62
# UO-31 = system: UO-31
# ACHN = system: ACHN
# BT-549 = system: BT-549
# DU-145 = system: DU-145
# Hs-578T = system: Hs-578T
# MCF7 = system: MCF7
# MDA-MB-231 = system: MDA-MB-231
# MDA-MB-435 = system: MDA-MB-435
# MDA-N = system: MDA-N
# NCI/ADR-RES = system: NCI/ADR-RES
# PC-3 = system: PC-3
# SK-MEL-28 = system: SK-MEL-28
# SK-MEL-2 = system: SK-MEL-2
# SK-OV-3 = system: SK-OV-3
# T47D = system: T47D
smiles,measurement,setting,value
COc1ccc(-c2ccccc2)c2[nH]c3c(c12)CCNC3=O,GI50,786-0,> 100 µM (inactive)
same,GI50,A498,> 100 µM (inactive)
same,GI50,A549,> 100 µM (inactive)
same,GI50,CAKI-1,> 100 µM (inactive)
same,GI50,CCRF-CEM,> 100 µM (inactive)
same,GI50,COLO 205,> 100 µM (inactive)
same,GI50,DLD-1,> 100 µM (inactive)
same,GI50,DMS-273,> 100 µM (inactive)
same,GI50,EKVX,> 100 µM (inactive)
same,GI50,HCC 2998,> 100 µM (inactive)
same,GI50,HCT-116,> 100 µM (inactive)
same,GI50,HCT-15,> 100 µM
same,GI50,HL-60,> 100 µM (inactive)
same,GI50,HOP-62,> 100 µM (inactive)
same,GI50,HOP-92,> 100 µM (inactive)
same,GI50,HT-29,> 100 µM (inactive)
same,GI50,IGROV-1,> 100 µM (inactive)
same,GI50,K562,> 100 µM (inactive)
same,GI50,KM-20L2,> 100 µM (inactive)
same,GI50,KM12,> 100 µM (inactive)
same,GI50,LOX IMVI,> 100 µM (inactive)
same,GI50,LXFL 529,> 100 µM (inactive)
same,GI50,M14,> 100 µM (inactive)
same,GI50,M19-MEL,> 100 µM (inactive)
same,GI50,MOLT-4,> 100 µM (inactive)
same,GI50,Malme-3M,> 100 µM (inactive)
same,GI50,NCI-H226,> 100 µM (inactive)
same,GI50,NCI-H23,> 100 µM (inactive)
same,GI50,NCI-H460,> 100 µM (inactive)
same,GI50,NCI-H522,> 100 µM (inactive)
same,GI50,OVCAR-3,> 100 µM (inactive)
same,GI50,OVCAR-4,> 100 µM (inactive)
same,GI50,OVCAR-5,> 100 µM (inactive)
same,GI50,OVCAR-8,> 100 µM (inactive)
same,GI50,RPMI-8226,> 100 µM (inactive)
same,GI50,RXF 393,45.6 µM (inactive)
same,GI50,SF-268,> 100 µM (inactive)
same,GI50,SF-295,> 100 µM (inactive)
same,GI50,SF-539,> 100 µM (inactive)
same,GI50,SK-MEL-5,> 100 µM (inactive)
same,GI50,SN12C,> 100 µM (inactive)
same,GI50,SNB-19,> 100 µM (inactive)
same,GI50,SNB-75,> 100 µM (inactive)
same,GI50,SNB-78,> 100 µM (inactive)
same,GI50,SR,> 100 µM (inactive)
same,GI50,SW-620,> 100 µM (inactive)
same,GI50,TK-10,> 100 µM (inactive)
same,GI50,U-251,> 100 µM (inactive)
same,GI50,UACC-257,> 100 µM (inactive)
same,GI50,UACC-62,> 100 µM (inactive)
same,GI50,UO-31,> 100 µM (inactive)
CN(C)CCOc1ccc(-c2c(Oc3ccc(Cl)cc3)c(=O)oc3ccccc23)cc1,GI50,786-0,4.27 µM (inactive)
same,GI50,A498,19.4 µM (inactive)
same,GI50,A549,4.97 µM (inactive)
same,GI50,ACHN,18.6 µM (inactive)
same,GI50,BT-549,15 µM (inactive)
same,GI50,CAKI-1,12.9 µM (inactive)
same,GI50,CCRF-CEM,4.41 µM (inactive)
same,GI50,COLO 205,3.61 µM (inactive)
same,GI50,DU-145,10.5 µM (inactive)
same,GI50,EKVX,12.3 µM (inactive)
same,GI50,HCC 2998,3.15 µM (inactive)
same,GI50,HCT-116,3.82 µM (inactive)
same,GI50,HCT-15,6.95 µM
same,GI50,HL-60,5.61 µM (inactive)
same,GI50,HOP-62,21.9 µM (inactive)
same,GI50,HOP-92,19.5 µM (inactive)
same,GI50,HT-29,> 20.5 µM (inactive)
same,GI50,Hs-578T,8.59 µM (inactive)
same,GI50,IGROV-1,4.7 µM (inactive)
same,GI50,K562,3.84 µM (inactive)
same,GI50,KM12,9.57 µM (inactive)
same,GI50,LOX IMVI,6.98 µM (inactive)
same,GI50,M14,2.21 µM (inactive)
same,GI50,MCF7,4.41 µM (inactive)
same,GI50,MDA-MB-231,7.78 µM (inactive)
same,GI50,MDA-MB-435,2.67 µM (inactive)
same,GI50,MDA-N,2.61 µM (inactive)
same,GI50,MOLT-4,5.47 µM (inactive)
same,GI50,Malme-3M,5.83 µM (inactive)
same,GI50,NCI-H226,> 35.6 µM (inactive)
same,GI50,NCI-H23,14.5 µM (inactive)
same,GI50,NCI-H460,7.35 µM (inactive)
same,GI50,NCI-H522,8.75 µM (inactive)
same,GI50,NCI/ADR-RES,> 35.1 µM (inactive)
same,GI50,OVCAR-3,12.4 µM (inactive)
same,GI50,OVCAR-4,9.68 µM (inactive)
same,GI50,OVCAR-5,15.8 µM (inactive)
same,GI50,OVCAR-8,> 24.5 µM (inactive)
same,GI50,PC-3,6.64 µM (inactive)
same,GI50,RPMI-8226,8.43 µM (inactive)
same,GI50,RXF 393,8.09 µM (inactive)
same,GI50,SF-268,8.69 µM (inactive)
same,GI50,SF-295,5.36 µM (inactive)
same,GI50,SF-539,9.84 µM (inactive)
same,GI50,SK-MEL-28,3.27 µM (inactive)
same,GI50,SK-MEL-2,7.59 µM (inactive)
same,GI50,SK-MEL-5,2.01 µM (inactive)
same,GI50,SK-OV-3,10.4 µM (inactive)
same,GI50,SN12C,13.7 µM (inactive)
same,GI50,SNB-19,16.9 µM (inactive)
same,GI50,SNB-75,6.56 µM (inactive)
same,GI50,SR,4.09 µM (inactive)
same,GI50,SW-620,> 23.5 µM (inactive)
same,GI50,T47D,8.87 µM (inactive)
same,GI50,TK-10,10.4 µM (inactive)
same,GI50,U-251,3.64 µM (inactive)
same,GI50,UACC-257,5.13 µM (inactive)
same,GI50,UACC-62,4.97 µM (inactive)
same,GI50,UO-31,5.43 µM (inactive)
COc1cccc2c1C(=O)c1c(O)c3c(c(O)c1C2=O)C[C@@](O)(C(=O)CO)C[C@@H]3OC1CC2C(OCN3CN2COC2C(C)OC(O[C@H]4C[C@](O)(C(=O)CO)Cc5c(O)c6c(c(O)c54)C(=O)c4c(OC)cccc4C6=O)CC23)C(C)O1 (some centres undefined),GI50,786-0,0.02 µM (active)
same,GI50,A498,0.0559 µM (active)
same,GI50,A549,0.0269 µM (active)
same,GI50,ACHN,0.0634 µM (active)
same,GI50,BT-549,0.157 µM (active)
same,GI50,CAKI-1,0.0927 µM (active)
same,GI50,CCRF-CEM,0.00916 µM (active)
same,GI50,COLO 205,0.0614 µM (active)
same,GI50,DU-145,0.0265 µM (active)
same,GI50,EKVX,0.203 µM (active)
same,GI50,HCC 2998,0.0274 µM (active)
same,GI50,HCT-116,0.0289 µM (active)
same,GI50,HCT-15,0.161 µM
same,GI50,HL-60,0.0258 µM (active)
same,GI50,HOP-62,0.04 µM (active)
same,GI50,HOP-92,0.0308 µM (active)
same,GI50,HT-29,0.0428 µM (active)
same,GI50,Hs-578T,0.0559 µM (active)
same,GI50,IGROV-1,0.0266 µM (active)
same,GI50,K562,0.0684 µM (active)
same,GI50,KM12,0.0635 µM (active)
same,GI50,LOX IMVI,0.0134 µM (active)
same,GI50,M14,0.0861 µM (active)
same,GI50,MCF7,0.0179 µM (active)
same,GI50,MDA-MB-231,0.0741 µM (active)
same,GI50,MDA-MB-435,0.0891 µM (active)
same,GI50,MDA-N,0.0923 µM (active)
same,GI50,MOLT-4,0.00269 µM (active)
same,GI50,Malme-3M,0.0444 µM (active)
same,GI50,NCI-H226,0.0665 µM (active)
same,GI50,NCI-H23,0.027 µM (active)
same,GI50,NCI-H460,0.00433 µM (active)
same,GI50,NCI-H522,0.0218 µM (active)
same,GI50,NCI/ADR-RES,0.251 µM (active)
same,GI50,OVCAR-3,0.112 µM (active)
same,GI50,OVCAR-4,0.237 µM (active)
same,GI50,OVCAR-5,0.131 µM (active)
same,GI50,OVCAR-8,0.0376 µM (active)
same,GI50,PC-3,0.0929 µM (active)
same,GI50,RPMI-8226,0.0184 µM (active)
same,GI50,RXF 393,0.0106 µM (active)
same,GI50,SF-268,0.0319 µM (active)
same,GI50,SF-295,0.0498 µM (active)
same,GI50,SF-539,0.0377 µM (active)
same,GI50,SK-MEL-28,0.157 µM (active)
same,GI50,SK-MEL-2,0.0362 µM (active)
same,GI50,SK-MEL-5,0.0614 µM (active)
same,GI50,SK-OV-3,0.0681 µM (active)
same,GI50,SN12C,0.0231 µM (active)
same,GI50,SNB-19,0.0272 µM (active)
same,GI50,SNB-75,0.0151 µM (active)
same,GI50,SR,0.00119 µM (active)
same,GI50,SW-620,0.0187 µM (active)
same,GI50,T47D,0.0167 µM (active)
same,GI50,TK-10,0.0412 µM (active)
same,GI50,U-251,0.0186 µM (active)
same,GI50,UACC-257,0.05 µM (active)
same,GI50,UACC-62,0.0345 µM (active)
same,GI50,UO-31,0.139 µM (active)
